The text below walks through data of ChEMBL document CHEMBL1133251, “Synthesis and biological evaluation of 1-azabicyclo-[3.2.1]octanes: new dopamine transporter inhibitors” (Bioorg Med Chem Lett, 2000).

In assay [1] the target is T1, Sodium-dependent dopamine transporter (Rattus norvegicus, UniProt P23977). Nature of the assay: Inhibition of [3H]- Mazindol binding to dopamine transporter of rat striatal membrane.
Assay [2] addresses Norepinephrine transporter (Rattus norvegicus, UniProt Q9WTR4). Nature of the assay: Inhibition of [3H]NE binding to norepinephrine transporter of rat brain synaptosomes. The class given is subcellular.
Assay [3] concerns the target Sodium-dependent serotonin transporter (Rattus norvegicus, UniProt P31652). Nature of the assay: Inhibition of [3H]-5-HT binding to serotonin transporter of rat brain synaptosomes. In kind it is subcellular.
For assay [4], the target named is T1, Sodium-dependent dopamine transporter. Nature of the assay: Inhibition of [3H]DA binding to dopamine transporter of rat brain synaptosomes. The class given is subcellular.

The Ki is the equilibrium dissociation constant of an inhibitor or competing ligand from its target. Lower therefore signals a stronger hold on the target.

Chain of Norepinephrine transporter (Q9WTR4 whole entry): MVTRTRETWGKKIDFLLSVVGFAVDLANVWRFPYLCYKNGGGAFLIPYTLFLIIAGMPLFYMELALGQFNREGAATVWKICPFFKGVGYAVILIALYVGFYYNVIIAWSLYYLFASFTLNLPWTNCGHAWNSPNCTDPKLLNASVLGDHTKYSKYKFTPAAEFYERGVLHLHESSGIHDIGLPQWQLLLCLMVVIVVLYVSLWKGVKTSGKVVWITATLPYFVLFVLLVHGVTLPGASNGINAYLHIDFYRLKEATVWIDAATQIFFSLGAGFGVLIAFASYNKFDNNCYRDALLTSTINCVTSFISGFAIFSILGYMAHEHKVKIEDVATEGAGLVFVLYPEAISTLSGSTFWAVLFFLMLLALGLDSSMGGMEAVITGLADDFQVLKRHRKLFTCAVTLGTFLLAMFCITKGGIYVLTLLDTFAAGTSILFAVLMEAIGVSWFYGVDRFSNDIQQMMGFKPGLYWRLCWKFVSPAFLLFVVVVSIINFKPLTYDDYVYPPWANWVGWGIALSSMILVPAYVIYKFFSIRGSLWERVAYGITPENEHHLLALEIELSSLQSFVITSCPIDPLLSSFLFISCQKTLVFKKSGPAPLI
T1 sequence (P23977 whole entry): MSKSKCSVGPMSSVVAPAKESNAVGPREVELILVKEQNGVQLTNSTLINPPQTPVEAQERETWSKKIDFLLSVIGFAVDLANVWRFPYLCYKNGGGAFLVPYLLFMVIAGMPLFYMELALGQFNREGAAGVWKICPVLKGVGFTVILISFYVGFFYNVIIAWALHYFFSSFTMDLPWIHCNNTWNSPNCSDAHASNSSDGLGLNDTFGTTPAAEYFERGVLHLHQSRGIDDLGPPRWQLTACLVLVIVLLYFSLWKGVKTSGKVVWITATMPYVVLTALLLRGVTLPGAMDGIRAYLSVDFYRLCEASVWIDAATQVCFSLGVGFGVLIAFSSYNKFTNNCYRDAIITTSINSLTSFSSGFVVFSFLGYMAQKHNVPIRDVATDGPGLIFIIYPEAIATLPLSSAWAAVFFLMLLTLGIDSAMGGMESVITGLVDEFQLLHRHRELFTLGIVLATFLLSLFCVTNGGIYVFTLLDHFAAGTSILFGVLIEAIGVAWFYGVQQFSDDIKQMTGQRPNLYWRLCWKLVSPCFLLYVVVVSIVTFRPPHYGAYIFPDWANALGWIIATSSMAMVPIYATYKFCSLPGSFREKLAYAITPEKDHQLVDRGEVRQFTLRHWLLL
Chain of Sodium-dependent serotonin transporter (P31652 whole entry): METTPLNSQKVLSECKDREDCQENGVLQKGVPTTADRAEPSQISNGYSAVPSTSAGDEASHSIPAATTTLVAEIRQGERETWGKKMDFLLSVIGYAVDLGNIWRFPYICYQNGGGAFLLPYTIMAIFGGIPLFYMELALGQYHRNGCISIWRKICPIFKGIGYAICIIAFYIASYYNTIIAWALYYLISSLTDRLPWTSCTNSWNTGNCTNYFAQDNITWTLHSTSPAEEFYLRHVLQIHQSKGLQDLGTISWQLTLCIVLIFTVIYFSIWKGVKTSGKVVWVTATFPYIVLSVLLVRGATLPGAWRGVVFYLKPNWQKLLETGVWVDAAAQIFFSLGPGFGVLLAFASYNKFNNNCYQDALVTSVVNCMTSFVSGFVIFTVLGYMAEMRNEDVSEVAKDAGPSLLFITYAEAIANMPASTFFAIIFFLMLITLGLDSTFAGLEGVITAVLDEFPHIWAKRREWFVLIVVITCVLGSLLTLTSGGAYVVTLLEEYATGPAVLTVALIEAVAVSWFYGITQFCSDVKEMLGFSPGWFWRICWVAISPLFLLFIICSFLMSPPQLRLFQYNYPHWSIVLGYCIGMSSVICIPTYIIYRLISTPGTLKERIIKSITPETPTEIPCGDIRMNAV

On to `CC(C)(C)O/N=C1\CN2CC[C@@H](c3ccc(Cl)cc3)C1C2` (some centres undefined), for which the Ki in assay [1] was determined as 641 nM; in assay [2] it was 287 nM; in assay [3], 137 nM; in assay [4], 725 nM.
For the molecule `CO/N=C1/CN2CC[C@H](c3ccc(Cl)cc3)C1C2` (some centres undefined), the Ki in assay [2] is 240 nM; in assay [3], 856 nM.
Regarding `CO/N=C1/CN2CC[C@@H](c3ccc(Cl)cc3)C1C2` (some centres undefined), the values for the Ki in assay [2] and in assay [3] were 232 nM and above 2000 nM, respectively.
As for `Clc1ccc([C@@H]2CCN3C/C(=N\OCCCc4ccccc4)C2C3)cc1` (some centres undefined), the Ki in assay [1] was determined as 53 nM; in assay [2], 483 nM; in assay [3], 292 nM; in assay [4] it was 41 nM.
Regarding `Clc1ccc([C@@H]2CCN3C/C(=N\OCc4ccccc4)C2C3)cc1` (some centres undefined), the Ki in assay [2] came to 1550 nM; in assay [3] it was 117 nM; in assay [4], 1860 nM.
Take `CN1CCC(c2ccc(Cl)cc2)C(C(=O)OCCC(c2ccccc2)c2ccccc2)C1` (single isomer, unassigned; (+)): the Ki in assay [1] turned out to be 420 nM; in assay [2], 3140 nM; in assay [3], 2590 nM; in assay [4] it was 1160 nM.
`CN1CCC(c2ccc(Cl)cc2)C(C(=O)OCCCCCc2ccccc2)C1` (single isomer, unassigned; (+)): the Ki in assay [1] stood at 52 nM; in assay [2], 382 nM; in assay [3], 1790 nM; in assay [4] it was 53 nM.
Take `CO/N=C1\CN2CC[C@@H](c3ccc(Cl)cc3)C1C2` (single isomer, unassigned; (+)): the values for the inhibition constant Ki in assay [2] and in assay [3] were above 4000 nM and 1790 nM, respectively.
As to `COC(=O)C1CN(C)CCC1c1ccc(Cl)cc1` (single isomer, unassigned; (+)), the inhibition constant Ki was determined as 248 nM in assay [1], 90 nM in assay [2], 5880 nM in assay [3] and 228 nM in assay [4].
In the case of `CN1CCC(c2ccc(Cl)cc2)C(C(=O)OCCCc2ccccc2)C1` (single isomer, unassigned; (+)), the Ki in assay [1] was 1490 nM; in assay [2] it was 72 nM; in assay [3], 2160 nM; in assay [4], 1420 nM.
As for `CO/N=C1\CN2CC[C@H](c3ccc(Cl)cc3)C1C2` (stereo in doubt; (+)-7), the Ki in assay [2] came to 871 nM; in assay [3], 2640 nM.
In the same order, the values of `CO/N=C1\CN2CC[C@H](c3ccc(Cl)cc3)C1C2` (stereo in doubt; (-)-6) are 305 nM and 503 nM.
As for `CO/N=C1\CN2CC[C@@H](c3ccc(Cl)cc3)C1C2` (stereo in doubt; (-)-7), the Ki in assay [2] worked out at 652 nM; in assay [3] it was 2530 nM.
